# Test results reported in US20100022514A1, “Heterocycle Compounds and Methods of Use Thereof” (NORVARTIS AG, priority 2006, published 2010).
# Like-named read-outs stand apart in the source and are kept apart here.
# Experiments:
# HDAC-1 = target: T1, HDAC-1 (Homo sapiens, UniProt Q13547); test: Deacetylase fluorescence assay (HDAC-1); format: biochemical
# T1 construct: made in house
# Procedure, shortened: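 Flag-tagged HDAC-1 immunopurified from overexpressing 293-derived cells was assayed in 25 mM Tris-HCl pH 8.0, 137 mM NaCl, 2.7 mM KCl, 1 mM MgCl2 with Fluor de Lys substrate (50 uM) and inhibitor. Deacetylation was read by fluorescence after trypsin developer containing TSA.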
# [1] = system: p21 promoter (p21-luc) in H1299 cells; test: p21 promoter luciferase assay using stably transfected p21-luc in H1299 cells; format: cell-based; conditions: Homo sapiens, NCI-H1299
# Procedure, shortened: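 H1299 cells stably carrying a p21 promoter–luciferase reporter, grown in RPMI 1640/10% FBS under Geneticin selection, seeded about 5000 cells/well and incubated overnight at 37 C. Compound exposure lasted one day. Cells were then lysed and luciferase luminescence measured.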
# T1 sequence (Q13547 whole entry): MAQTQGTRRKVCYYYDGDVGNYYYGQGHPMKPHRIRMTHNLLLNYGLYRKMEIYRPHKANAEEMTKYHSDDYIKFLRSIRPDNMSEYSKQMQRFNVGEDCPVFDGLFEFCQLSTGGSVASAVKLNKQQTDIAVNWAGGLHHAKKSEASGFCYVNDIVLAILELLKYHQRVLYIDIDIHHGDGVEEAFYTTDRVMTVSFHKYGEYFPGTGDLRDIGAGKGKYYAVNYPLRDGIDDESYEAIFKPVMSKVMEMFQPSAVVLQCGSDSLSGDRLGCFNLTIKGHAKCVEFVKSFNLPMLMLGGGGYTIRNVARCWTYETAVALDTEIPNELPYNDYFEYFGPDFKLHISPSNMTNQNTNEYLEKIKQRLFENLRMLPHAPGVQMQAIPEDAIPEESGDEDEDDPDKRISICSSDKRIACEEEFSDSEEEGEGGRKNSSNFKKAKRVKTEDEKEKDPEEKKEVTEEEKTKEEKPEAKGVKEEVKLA
IC50 (HDAC-1; read-out: HDAC-1 IC50) [µM],SMILES,AC50 [1] [µM],IC50 (HDAC-1) [µM]
< 0.1,"O=C(/C=C/c1ccc2c(c1)CCN(CCC1CCCCC1)C2)NO [Example 76, (E)-3-[2-(2-Cyclohexyl-ethyl)-1,2,3,4-tetrahydro-isoquinolin-6-yl]-N-hydroxy-acrylamide]",> 1,–
0.1 to 1,"O=C(/C=C/c1ccc2c(c1)CCN(Cc1ccccc1)C2)NO [Example 77, (E)-3-(2-Benzyl-1,2,3,4-tetrahydro-isoquinolin-6-yl)-N-hydroxy-acrylamide]",> 1,–
< 0.1,"Cc1noc(-c2ccccc2)c1CCN1CCc2cc(/C=C/C(=O)NO)ccc2C1 [Example 78, (E)-N-Hydroxy-3-{2-[2-(3-methyl-5-phenyl-isoxazol-4-yl)-ethyl]-1,2,3,4-tetrahydro-isoquinolin-6-yl}-acrylamide]",> 1,–
< 0.1,"Cc1[nH]c2ccccc2c1CC(=O)N1CCc2cc(/C=C/C(=O)NO)ccc2C1 [Example 79, (E)-N-Hydroxy-3-{2-[2-(2-methyl-1H-indol-3-yl)-acetyl]-1,2,3,4-tetrahydro-isoquinolin-6-yl}-acrylamide]",> 1,–
< 0.1,"Cc1[nH]c2ccccc2c1CCN1CCc2ccc(/C=C/C(=O)NO)cc2CC1 [Example 80, (E)-N-Hydroxy-3-{3-[2-(2-methyl-1H-indol-3-yl)-ethyl]-2,3,4,5-tetrahydro-1H-benzo[d]azepin-7-yl}-acrylamide]",> 1,–
0.1 to 1,"O=C(/C=C/c1ccc2c(c1)CCN(S(=O)(=O)c1ccccc1)C2)NO [Example 81, (E)-3-(2-Benzenesulfonyl-1,2,3,4-tetrahydro-isoquinolin-6-yl)-N-hydroxy-acrylamide]",> 1,–
0.1 to 1,"COc1ccc(S(=O)(=O)N2CCc3cc(/C=C/C(=O)NO)ccc3C2)cc1 [Example 82, (E)-N-Hydroxy-3-[2-(4-methoxy-benzenesulfonyl)-1,2,3,4-tetrahydro-isoquinolin-6-yl]-acrylamide]",> 1,–
0.1 to 1,"COc1cccc(S(=O)(=O)N2CCc3cc(/C=C/C(=O)NO)ccc3C2)c1 [Example 83, (E)-N-Hydroxy-3-[2-(3-methoxy-benzenesulfonyl)-1,2,3,4-tetrahydro-isoquinolin-6-yl]-acrylamide]",> 1,–
0.1 to 1,"COc1cccc(S(=O)(=O)N2CCc3cc(CCC(=O)NO)ccc3C2)c1 [Example 84, N-Hydroxy-3-[2-(3-methoxy-benzenesulfonyl)-1,2,3,4-tetrahydro-isoquinolin-6-yl]-propionamide]",> 1,–
< 0.1,"Cc1c(CCN2CCc3cc(/C=C/C(=O)NO)ccc3C2)cnn1-c1ccccc1 [Example 85, (E)-N-Hydroxy-3-{2-[2-(5-methyl-1-phenyl-1H-pyrazol-4-yl)-ethyl]-1,2,3,4-tetrahydro-isoquinolin-6-yl}-acrylamide]",> 1,–
0.1 to 1,"CN(C)c1ccc(C(=O)N2CCc3cc(/C=C/C(=O)NO)ccc3C2)cc1 [Example 86, (E)-3-[2-(4-Dimethylamino-benzoyl)-1,2,3,4-tetrahydro-isoquinolin-6-yl]-N-hydroxy-acrylamide]",> 1,–
0.1 to 1,"CN(C)c1ccc(C(=O)N2CCc3cc(CCC(=O)NO)ccc3C2)cc1 [Example 87, 3-[2-(4-Dimethylamino-benzoyl)-1,2,3,4-tetrahydro-isoquinolin-6-yl]-N-hydroxy-propionamide]",> 1,–
0.1 to 1,"COc1cccc(C(=O)N2CCc3cc(/C=C/C(=O)NO)ccc3C2)c1 [Example 88, (E)-N-Hydroxy-3-[2-(3-methoxy-benzoyl)-1,2,3,4-tetrahydro-isoquinolin-6-yl]-acrylamide]",> 1,–
0.1 to 1,"COc1ccc(C(=O)N2CCc3cc(/C=C/C(=O)NO)ccc3C2)cc1 [Example 89, (E)-N-Hydroxy-3-[2-(4-methoxy-benzoyl)-1,2,3,4-tetrahydro-isoquinolin-6-yl]-acrylamide]",> 1,–
0.1 to 1,"CN(C)c1ccc(C(=O)N2CCc3ccc(CCC(=O)NO)cc3C2)cc1 [Example 90, 3-[2-(4-Dimethylamino-benzoyl)-1,2,3,4-tetrahydro-isoquinolin-7-yl]-N-hydroxy-propionamide]",> 1,–

# Second part, the compound before the results:
SMILES,IC50 (HDAC-1; read-out: HDAC-1 IC50) [µM],AC50 [1] [µM],IC50 (HDAC-1) [µM]
"Cc1[nH]c2ccccc2c1CC(=O)N1CCc2ccc(CCC(=O)NO)cc2C1 [Example 62, N-Hydroxy-3-{2-[2-(2-methyl-1H-indol-3-yl)-acetyl]-1,2,3,4-tetrahydro-isoquinolin-7-yl}-propionamide]",< 0.1,> 1,–
"O=C(/C=C/c1ccc2c(c1)CN(C(=O)Cc1ccccc1)CC2)NO [Example 63, (E)-N-Hydroxy-3-(2-phenylacetyl-1,2,3,4-tetrahydro-isoquinolin-7-yl)-acrylamide]",< 0.1,> 1,–
"Cc1ccc(CC(=O)N2CCc3ccc(/C=C/C(=O)NO)cc3C2)cc1 [Example 64, (E)-N-Hydroxy-3-[2-(2-p-tolyl-acetyl)-1,2,3,4-tetrahydro-isoquinolin-7-yl]-acrylamide]",< 0.1,> 1,–
"COc1ccc(CC(=O)N2CCc3ccc(/C=C/C(=O)NO)cc3C2)cc1 [Example 65, (E)-N-Hydroxy-3-{2-[2-(4-methoxy-phenyl)-acetyl]-1,2,3,4-tetrahydro-isoquinolin-7-yl}-acrylamide]",< 0.1,> 1,–
"O=C(/C=C/c1ccc2c(c1)CN(C(=O)Cc1ccc(Cl)cc1)CC2)NO [Example 66, (E)-3-{2-[2-(4-Chloro-phenyl)-acetyl]-1,2,3,4-tetrahydro-isoquinolin-7-yl}-N-hydroxy-acrylamide]",< 0.1,> 1,–
"O=C(/C=C/c1ccc2c(c1)CN(C(=O)Cc1ccc(Cl)c(Cl)c1)CC2)NO [Example 67, (E)-3-{2-[2-(3,4-Dichloro-phenyl)-acetyl]-1,2,3,4-tetrahydro-isoquinolin-7-yl}-N-hydroxy-acrylamide]",< 0.1,> 1,–
"O=C(/C=C/c1ccc2c(c1)CCN(CCc1c[nH]c3ccccc13)C2)NO [Example 68, (E)-N-Hydroxy-3-{2-[2-(1H-indol-3-yl)-ethyl]-1,2,3,4-tetrahydro-isoquinolin-6-yl}-acrylamide]",< 0.1,> 1,–
"O=C(/C=C/c1ccc2c(c1)CCN(CCc1cnn3ccccc13)C2)NO [Example 69, (E)-N-Hydroxy-3-[2-(2-pyrazolo[1,5-a]pyridin-3-yl-ethyl)-1,2,3,4-tetrahydro-isoquinolin-6-yl]-acrylamide]",< 0.1,> 1,–
"Cc1[nH]c2ccccc2c1CCN1CCc2cc(/C=C/C(=O)NO)ccc2C1 [Example 70, (E)-N-Hydroxy-3-{2-[2-(2-methyl-1H-indol-3-yl)-ethyl]-1,2,3,4-tetrahydro-isoquinolin-6-yl}-acrylamide]",–,0.1 to 1,< 0.1
"Cc1nn2ccccc2c1CCN1CCc2ccc(/C=C/C(=O)NO)cc2CC1 [Example 71, (E)-N-Hydroxy-3-{3-[2-(2-methyl-pyrazolo[1,5-a]pyridin-3-yl)-ethyl]-2,3,4,5-tetrahydro-1H-benzo[d]azepin-7-yl}-acrylamide]",0.1 to 1,> 1,–
"CCc1nn2ccccc2c1CCN1CCc2cc(/C=C/C(=O)NO)ccc2C1 [Example 72, (E)-3-{2-[2-(2-Ethyl-pyrazolo[1,5-a]pyridin-3-yl)-ethyl]-1,2,3,4-tetrahydro-isoquinolin-6-yl}-N-hydroxy-acrylamide]",< 0.1,0.1 to 1,–
"CCc1nn2ccccc2c1CCN1CCc2cc(CCC(=O)NO)ccc2C1 [Example 73, 3-{2-[2-(2-Ethyl-pyrazolo[1,5-a]pyridin-3-yl)-ethyl]-1,2,3,4-tetrahydro-isoquinolin-6-yl}-N-hydroxy-propionamide]",0.1 to 1,> 1,–
"CC(C)(C)c1[nH]c2ccccc2c1CCN1CCc2cc(/C=C/C(=O)NO)ccc2C1 [Example 74, (E)-3-{2-[2-(2-tert-Butyl-1H-indol-3-yl)-ethyl]-1,2,3,4-tetrahydro-isoquinolin-6-yl}-N-hydroxy-acrylamide]",< 0.1,0.1 to 1,–
"O=C(/C=C/c1ccc2c(c1)CCN(CCc1ccccc1)C2)NO [Example 75, (E)-N-Hydroxy-3-(2-phenethyl-1,2,3,4-tetrahydro-isoquinolin-6-yl)-acrylamide]",< 0.1,> 1,–
